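Results reflect a 48-hour exposure of cells in 96-well plates to compound at five concentrations. Abbreviation: GI50, concentration required for 50% inhibition of growth.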 Calls of active or inactive are those of the source. Rule as the data show it: active = GI50 up to about 1.1 µM and inactive = higher.
Legend:
Assay in all cases: inhibition of tumour cell growth, NCI panel, 48 h
RPMI-8226 = test system: RPMI-8226
KM12 = test system: KM12
MCF7 = test system: MCF7
HCC 2998 = test system: HCC 2998
T47D = test system: T47D
NCI-H522 = test system: NCI-H522
SK-MEL-28 = test system: SK-MEL-28
NCI-H460 = test system: NCI-H460
SN12C = test system: SN12C
MDA-MB-231 = test system: MDA-MB-231
SF-268 = test system: SF-268
Malme-3M = test system: Malme-3M
MDA-MB-435 = test system: MDA-MB-435
Hs-578T = test system: Hs-578T
SW-620 = test system: SW-620
UACC-62 = test system: UACC-62
786-0 = test system: 786-0
EKVX = test system: EKVX
COLO 205 = test system: COLO 205
SK-MEL-2 = test system: SK-MEL-2
RXF 393 = test system: RXF 393
NCI-H23 = test system: NCI-H23
DU-145 = test system: DU-145
HCT-116 = test system: HCT-116
A549 = test system: A549
OVCAR-5 = test system: OVCAR-5
PC-3 = test system: PC-3
CAKI-1 = test system: CAKI-1
MDA-N = test system: MDA-N
SF-539 = test system: SF-539
ACHN = test system: ACHN
SNB-75 = test system: SNB-75
SK-OV-3 = test system: SK-OV-3
OVCAR-3 = test system: OVCAR-3
TK-10 = test system: TK-10
SF-295 = test system: SF-295
A498 = test system: A498
OVCAR-4 = test system: OVCAR-4
NCI-H226 = test system: NCI-H226
IGROV-1 = test system: IGROV-1
BT-549 = test system: BT-549
HL-60 = test system: HL-60
HOP-92 = test system: HOP-92
U-251 = test system: U-251
M14 = test system: M14
CCRF-CEM = test system: CCRF-CEM
LOX IMVI = test system: LOX IMVI
SK-MEL-5 = test system: SK-MEL-5
SR = test system: SR
HOP-62 = test system: HOP-62
HT-29 = test system: HT-29
UO-31 = test system: UO-31
NCI/ADR-RES = test system: NCI/ADR-RES
OVCAR-8 = test system: OVCAR-8
UACC-257 = test system: UACC-257
MOLT-4 = test system: MOLT-4
SNB-19 = test system: SNB-19
HCT-15 = test system: HCT-15
K562 = test system: K562

## CCOc1ccc(/N=N/C2C(=O)N(C(=O)CC(=O)Nc3ccc(Cl)cc3)N=C2C)cc1 (stereo unspecified)
RPMI-8226
  GI50: > 100 µM (inactive)
KM12
  GI50: > 100 µM (inactive)
MCF7
  GI50: > 100 µM (inactive)
HCC 2998
  GI50: > 100 µM (inactive)
T47D
  GI50: > 100 µM (inactive)
NCI-H522
  GI50: > 100 µM (inactive)
SK-MEL-28
  GI50: > 100 µM (inactive)
NCI-H460
  GI50: > 100 µM (inactive)
SN12C
  GI50: > 100 µM (inactive)
MDA-MB-231
  GI50: > 100 µM (inactive)
SF-268
  GI50: > 100 µM (inactive)
Malme-3M
  GI50: > 100 µM (inactive)
MDA-MB-435
  GI50: > 100 µM (inactive)
Hs-578T
  GI50: > 100 µM (inactive)
SW-620
  GI50: > 100 µM (inactive)
UACC-62
  GI50: > 100 µM (inactive)
786-0
  GI50: > 100 µM (inactive)
EKVX
  GI50: > 100 µM (inactive)
COLO 205
  GI50: > 100 µM (inactive)
SK-MEL-2
  GI50: > 100 µM (inactive)
RXF 393
  GI50: > 100 µM (inactive)
NCI-H23
  GI50: > 100 µM (inactive)
DU-145
  GI50: > 100 µM (inactive)
HCT-116
  GI50: > 100 µM (inactive)
A549
  GI50: > 100 µM (inactive)
OVCAR-5
  GI50: > 100 µM (inactive)
PC-3
  GI50: > 100 µM (inactive)
CAKI-1
  GI50: > 100 µM (inactive)
MDA-N
  GI50: > 100 µM (inactive)
SF-539
  GI50: > 100 µM (inactive)
ACHN
  GI50: > 100 µM (inactive)
SNB-75
  GI50: 18.4 µM (inactive)
SK-OV-3
  GI50: > 100 µM (inactive)
OVCAR-3
  GI50: > 100 µM (inactive)
TK-10
  GI50: > 100 µM (inactive)
SF-295
  GI50: > 100 µM (inactive)
A498
  GI50: > 100 µM (inactive)
OVCAR-4
  GI50: > 100 µM (inactive)
NCI-H226
  GI50: > 100 µM (inactive)
IGROV-1
  GI50: > 100 µM (inactive)
BT-549
  GI50: > 100 µM (inactive)
HL-60
  GI50: > 100 µM (inactive)
HOP-92
  GI50: > 100 µM (inactive)
U-251
  GI50: > 100 µM (inactive)
M14
  GI50: > 100 µM (inactive)
CCRF-CEM
  GI50: > 100 µM (inactive)
LOX IMVI
  GI50: > 100 µM (inactive)
SK-MEL-5
  GI50: > 100 µM (inactive)
SR
  GI50: > 100 µM (inactive)
HOP-62
  GI50: > 100 µM (inactive)
HT-29
  GI50: > 100 µM (inactive)
UO-31
  GI50: > 100 µM (inactive)
NCI/ADR-RES
  GI50: > 100 µM (inactive)
OVCAR-8
  GI50: 64.1 µM (inactive)

## CC(C)(C)OC(=O)c1ccc(NCC2=CC(=O)C=CC2=O)cc1
RPMI-8226
  GI50: 2.48 µM (inactive)
UACC-257
  GI50: 12.3 µM (inactive)
KM12
  GI50: 14.5 µM (inactive)
MCF7
  GI50: 0.706 µM (active)
HCC 2998
  GI50: 20 µM (inactive)
T47D
  GI50: 1.95 µM (inactive)
NCI-H522
  GI50: 1.63 µM (inactive)
SK-MEL-28
  GI50: 15.6 µM (inactive)
MOLT-4
  GI50: 1.97 µM (inactive)
NCI-H460
  GI50: 23.6 µM (inactive)
SN12C
  GI50: 11.4 µM (inactive)
MDA-MB-231
  GI50: 8.34 µM (inactive)
SF-268
  GI50: 11.5 µM (inactive)
Malme-3M
  GI50: 2.89 µM (inactive)
MDA-MB-435
  GI50: 12.9 µM (inactive)
Hs-578T
  GI50: 15.7 µM (inactive)
SW-620
  GI50: 9.91 µM (inactive)
UACC-62
  GI50: 13.2 µM (inactive)
786-0
  GI50: 9.35 µM (inactive)
EKVX
  GI50: 14.8 µM (inactive)
COLO 205
  GI50: 2.83 µM (inactive)
SK-MEL-2
  GI50: 16.7 µM (inactive)
RXF 393
  GI50: 11.4 µM (inactive)
NCI-H23
  GI50: 8.61 µM (inactive)
DU-145
  GI50: 16.1 µM (inactive)
HCT-116
  GI50: 13.2 µM (inactive)
A549
  GI50: 18.1 µM (inactive)
OVCAR-5
  GI50: 17.8 µM (inactive)
PC-3
  GI50: 12 µM (inactive)
CAKI-1
  GI50: 1.48 µM (inactive)
MDA-N
  GI50: 12.5 µM (inactive)
SF-539
  GI50: 5.52 µM (inactive)
ACHN
  GI50: 10.1 µM (inactive)
SNB-75
  GI50: 8.28 µM (inactive)
SK-OV-3
  GI50: 17.1 µM (inactive)
OVCAR-3
  GI50: 4.15 µM (inactive)
TK-10
  GI50: 9.25 µM (inactive)
SF-295
  GI50: 23 µM (inactive)
A498
  GI50: 15.2 µM (inactive)
OVCAR-4
  GI50: 8.85 µM (inactive)
NCI-H226
  GI50: 18.2 µM (inactive)
IGROV-1
  GI50: 11.6 µM (inactive)
BT-549
  GI50: 11.6 µM (inactive)
HL-60
  GI50: 1.03 µM (active)
HOP-92
  GI50: 1.93 µM (inactive)
U-251
  GI50: 14 µM (inactive)
M14
  GI50: 6.38 µM (inactive)
CCRF-CEM
  GI50: 1.76 µM (inactive)
LOX IMVI
  GI50: 10.7 µM (inactive)
SK-MEL-5
  GI50: 14.4 µM (inactive)
SNB-19
  GI50: 15.1 µM (inactive)
SR
  GI50: 2.47 µM (inactive)
HOP-62
  GI50: 25.9 µM (inactive)
HCT-15
  GI50: 7.18 µM
HT-29
  GI50: 17.3 µM (inactive)
UO-31
  GI50: 7.11 µM (inactive)
NCI/ADR-RES
  GI50: 8.93 µM (inactive)
K562
  GI50: 2.75 µM (inactive)
OVCAR-8
  GI50: 13 µM (inactive)

## COc1cc(/C=N/N=C2NCCCCN2)ccc1O
RPMI-8226
  GI50: > 100 µM (inactive)
UACC-257
  GI50: > 100 µM (inactive)
KM12
  GI50: > 100 µM (inactive)
MCF7
  GI50: 50.2 µM (inactive)
HCC 2998
  GI50: > 100 µM (inactive)
T47D
  GI50: 53.8 µM (inactive)
NCI-H522
  GI50: > 100 µM (inactive)
SK-MEL-28
  GI50: > 100 µM (inactive)
MOLT-4
  GI50: > 100 µM (inactive)
NCI-H460
  GI50: > 100 µM (inactive)
SN12C
  GI50: > 100 µM (inactive)
MDA-MB-231
  GI50: > 100 µM (inactive)
SF-268
  GI50: > 100 µM (inactive)
Malme-3M
  GI50: > 100 µM (inactive)
MDA-MB-435
  GI50: > 100 µM (inactive)
Hs-578T
  GI50: > 100 µM (inactive)
SW-620
  GI50: > 100 µM (inactive)
UACC-62
  GI50: > 100 µM (inactive)
786-0
  GI50: > 100 µM (inactive)
EKVX
  GI50: > 100 µM (inactive)
COLO 205
  GI50: > 100 µM (inactive)
SK-MEL-2
  GI50: > 100 µM (inactive)
RXF 393
  GI50: > 100 µM (inactive)
NCI-H23
  GI50: > 100 µM (inactive)
DU-145
  GI50: > 100 µM (inactive)
HCT-116
  GI50: > 100 µM (inactive)
A549
  GI50: > 100 µM (inactive)
OVCAR-5
  GI50: > 100 µM (inactive)
PC-3
  GI50: > 100 µM (inactive)
MDA-N
  GI50: > 100 µM (inactive)
SF-539
  GI50: > 100 µM (inactive)
ACHN
  GI50: > 100 µM (inactive)
SNB-75
  GI50: > 100 µM (inactive)
SK-OV-3
  GI50: > 100 µM (inactive)
OVCAR-3
  GI50: > 100 µM (inactive)
TK-10
  GI50: > 100 µM (inactive)
SF-295
  GI50: 61.7 µM (inactive)
A498
  GI50: 96.2 µM (inactive)
OVCAR-4
  GI50: > 100 µM (inactive)
NCI-H226
  GI50: > 100 µM (inactive)
IGROV-1
  GI50: > 100 µM (inactive)
BT-549
  GI50: > 100 µM (inactive)
HL-60
  GI50: > 100 µM (inactive)
HOP-92
  GI50: > 100 µM (inactive)
U-251
  GI50: > 100 µM (inactive)
M14
  GI50: > 100 µM (inactive)
CCRF-CEM
  GI50: > 100 µM (inactive)
LOX IMVI
  GI50: > 100 µM (inactive)
SK-MEL-5
  GI50: 40 µM (inactive)
SNB-19
  GI50: > 100 µM (inactive)
SR
  GI50: > 100 µM (inactive)
HOP-62
  GI50: > 100 µM (inactive)
HCT-15
  GI50: > 100 µM
HT-29
  GI50: 80 µM (inactive)
UO-31
  GI50: > 100 µM (inactive)
NCI/ADR-RES
  GI50: > 100 µM (inactive)
K562
  GI50: 58.7 µM (inactive)
OVCAR-8
  GI50: > 100 µM (inactive)

From ChEMBL document CHEMBL1201862, “PubChem BioAssay data set” (2004)
